Laboratory results taken from publication PMC5720837, “Identification of a 4-fluorobenzyl L-valinate amide benzoxaborole (AN11736) as a potential development candidate for the treatment of Animal African Trypanosomiasis (AAT)” (Bioorganic & Medicinal Chemistry Letters, 2018).

Key:
[1] = test system: T. c. parasites (STIB736/IL1180 strain); test: In vivo mouse model of T. congolense infection; design: species or system NMRI female mice; conditions: for Efficacy in mouse model T. c., n/m (mice survived / total mice in group): intraperitoneal, monitored 60 days post treatment; for curative efficacy in the T. c.-infected mouse model: single dose of 10 mg/kg, IP
Method: (§1) Selected compounds were screened in both mouse and bovine in vitro metabolic stability assays (mouse S9 and bovine S9), as summarized in Table 2. These two species were chosen because the primary in vivo assays were conducted in mice, and the target animal of this research program is cattle. […] We evaluated the efficacy of selected compounds in two in vivo mouse models of infection, against T. congolense and T. vivax, respectively. Mice were infected with either 1 × 10^5 T. c. parasites or 1 × 10^4 T. v. parasites, and then treated with a test compound via intraperitoneal administration for 1, 2 or 4 consecutive days. The mice were then monitored for the presence of parasitemia for up to 60 days post treatment.[7] We tested in T. c. model first, then followed up with T. v. for interesting compounds. […] We selected compound 5 (AN11736) to progress to exploratory studies to determine the efficacy and safety in a preliminary formulation against induced infections of T. vivax and T. congolense in cattle.[8]
(§2) [7] Methods for testing compound efficacy in mouse models: In vivo mouse efficacy studies were performed at the Swiss TPH, using established mouse models of infection for T. c. and T. v. NMRI female mice were independently infected either with 1 × 10^5T. c. parasites/mouse (STIB736/IL1180 strain) or 1 × 10^4T. v. parasites/mouse (STIB719/ILRAD560 strain) using an intraperitoneal route. Parasitemia was allowed to develop over 7 days (T. c.) or 3 days (T. v.), respectively, before treatment was administered. Compounds were administered via intraperitoneal injection in 10% DMSO/water. Four mice were used per treatment group. Mice were monitored for the presence of trypanosomes, via tail blood examination microscopically with twice-per-week parasitemia checks for 60 days post treatment. Parasitemia was graded on a scale of 0–3, with 0 indicating no trypanosomes seen in 20 fields of view, 1 indicating the presence of 1–5 trypanosomes per field, 2 indicating the presence of 6–20 trypanosomes per field and 3 indicating greater than 20 trypanosomes per field. Mice scoring 2 or 3 were immediately euthanized. After 60 days, aparasitemic mice were considered cured. Untreated control mice survive on average for 10 and 6 days post infection for T. c. and T. v., respectively. All in vivo mouse experiments were conducted in accordance with the strict guidelines set out by the Swiss Federal Veterinary Office, under the ethical approval of license number #2813.

[2] = In vitro metabolic stability, mouse S9; assay type: in vitro ADME; conditions: S9 fraction
Method: as §1

[3] = test system: Trypanosoma congolense (T. congolense IL-3000 strain), bloodstream form; test: Whole cell Alamar Blue assay, T. congolense (72 h in vitro); assay type: cell-based; conditions: Trypanosoma congolense, 72 h, T. congolense IL-3000, 72 h in vitro Alamar Blue assay
Method: (§3) Activity of compounds 1–71 against T. congolense and T. vivax was determined using the whole cell assays as described ^6 and their IC50 values are summarized in Table 1.
(§4) [6] Assay methods for determination of T. c. and T. v. […] Culture media consisted of complete HMI-9 (IMDM) with 20% bovine serum. To ensure log growth phase, trypanosomes were sub-cultured at appropriate dilutions every 2–3 days. Bloodstream form Trypanosoma vivax (T. vivax) cannot be cultured axenically, therefore trypanosomes (T. vivax STIB719/ILRAD 560 strain) were harvested from a highly parasitemia mouse via cardiac puncture and used directly in the ex vivo drug sensitivity assay on the same day. […] Parasite starting concentrations of 2 × 10^5 (T. c.) and 4 × 10^5 (T. v.) were calculated respectively, using a cell analyzer system or haemo-cytometer, followed by quantification at 536 nm excitation and 588 nm emission wavelengths using a […] reader. Test compounds were prepared as 10 mg/mL DMSO stocks for each assay run. Compounds were assayed in at least three separate, independent test runs and an 11-point dilution curve was used to determine the IC50 values. Data points were averaged to generate sigmoidal dose-response curves and IC50 values were determined using Softmax Pro 5.2 software.

[4] = test system: Trypanosoma vivax (T. vivax STIB719/ILRAD 560 strain), bloodstream form; test: Whole cell Alamar Blue assay, T. vivax (48 h ex vivo); assay type: cell-based; conditions: Trypanosoma vivax; T. vivax STIB719/ILRAD 560, 48 h ex vivo Alamar Blue assay
Method: as §3, §4

[5] = In vitro metabolic stability, bovine S9; assay type: in vitro ADME; conditions: S9 fraction
Method: as §1

[6] = test system: T. v. parasites (STIB719/ILRAD560 strain); test: In vivo mouse model of T. vivax infection; design: species or system NMRI female mice; conditions: for Efficacy in mouse model T. v., n/m (mice survived / total mice in group): intraperitoneal, monitored 60 days post treatment; for curative efficacy in the T. v.-infected mouse model: single dose of 10 mg/kg, IP
Method: as §1, §2

Row | SMILES | Efficacy in mouse model T. c., n/m (mice survived / total mice in group) ([1]; 1 × 10 mg/kg) | curative efficacy in the T. c.-infected mouse model [1] | microsomal CLint [2] | IC50 [3] | IC50 [4] | microsomal CLint [5] | Efficacy in mouse model T. v., n/m (mice survived / total mice in group) ([6]; 1 × 10 mg/kg) | curative efficacy in the T. v.-infected mouse model [6] | Efficacy in mouse model T. c., n/m (mice survived / total mice in group) ([1]; 2 × 10 mg/kg) | Efficacy in mouse model T. v., n/m (mice survived / total mice in group) ([6]; 4 × 10 mg/kg) | Efficacy in mouse model T. v., n/m (mice survived / total mice in group) ([6]; 2 × 10 mg/kg) | Efficacy in mouse model T. c., n/m (mice survived / total mice in group) ([1]; 4 × 10 mg/kg)
1 | Cc1c(C(=O)N[C@H](C(=O)OCc2ccc(OCCN3CCCC3)cc2)C(C)C)ccc2c1B(O)OC2 [Compound 49] | 2/4 (1 × 10) | ≥ 50% | 1.5 µL/min/mg | 0.39 nM | 68 nM | 4 µL/min/mg | 4/4 (1 × 10) | 100% | – | – | – | –
2 | CC(C)[C@H](NC(=O)c1ccc2c(c1)B(O)OC2)C(=O)OCc1ccccc1 [Compound 2] | – | – | – | 2 nM | 2 nM | – | 1/5 | – | 0/5 (2 × 10) | 5/5 | – | –
3 | Cc1c(C(=O)N[C@H](C(=O)OC2CCC(F)(F)CC2)C(C)C)ccc2c1B(O)OC2 [Compound 70] | 1/4 (1 × 10) | – | 1.5 µL/min/mg | 0.34 nM | 2.28 nM | 0.3 µL/min/mg | 4/4 (1 × 10) | – | – | – | – | –
4 | Cc1c(C(=O)N[C@H](C(=O)OCC2CCOCC2)C(C)C)ccc2c1B(O)OC2 [Compound 63] | 1/4 (1 × 10) | – | 0.9 µL/min/mg | 0.39 nM | 0.09 nM | 1.5 µL/min/mg | 4/4 (1 × 10) | – | – | – | – | –
5 | Cc1c(C(=O)N[C@H](C(=O)OCc2ccccc2)C(C)C)ccc2c1B(O)OC2 [Compound 4] | – | – | – | 0.46 nM | 0.79 nM | – | 4/4 | – | 4/5 (2 × 10) | – | 5/5 | –
6 | Cc1c(C(=O)N[C@H](C(=O)OCc2ccc(C(F)(F)F)cn2)C(C)C)ccc2c1B(O)OC2 [Compound 34] | 2/4 (1 × 10) | ≥ 50% | 11.8 µL/min/mg | 0.14 nM | 0.07 nM | 4.8 µL/min/mg | 4/4 (1 × 10) | 100% | – | – | – | –
7 | Cc1c(C(=O)N[C@H](C(=O)OC2CCOCC2)C(C)C)ccc2c1B(O)OC2 [Compound 69] | 1/4 (1 × 10) | – | 0.7 µL/min/mg | 0.47 nM | 1.6 nM | 0.6 µL/min/mg | 1/4 (1 × 10) | – | – | – | – | –
8 | Cc1c(C(=O)N[C@H](C(=O)OCc2cccc(CN3CCOCC3)c2)C(C)C)ccc2c1B(O)OC2 [Compound 53] | 0/4 (1 × 10) | – | 5.4 µL/min/mg | 0.51 nM | 0.35 nM | 6.8 µL/min/mg | – | – | – | – | – | –
9 | CC(C)[C@H](NC(=O)c1ccc2c(c1)B(O)OC2)C(=O)OCc1ccc(F)cc1 [Compound 20] | – | – | 1.5 µL/min/mg | 3 nM | 1 nM | 1.3 µL/min/mg | – | – | – | – | – | 0/5 (4 × 10)
10 | Cc1c(C(=O)N[C@H](C(=O)OCc2cccc(C#N)c2)C(C)C)ccc2c1B(O)OC2 [Compound 14] | 0/4 (1 × 10) | – | 9.1 µL/min/mg | 0.1 nM | 0.06 nM | 2.7 µL/min/mg | – | – | – | – | – | –
11 | Cc1c(C(=O)N[C@H](C(=O)OCc2nccc(C(F)(F)F)n2)C(C)C)ccc2c1B(O)OC2 [Compound 41] | 0/4 (1 × 10) | – | 1.3 µL/min/mg | 0.78 nM | 0.11 nM | 1.8 µL/min/mg | – | – | – | – | – | –
12 | Cc1c(C(=O)N[C@H](C(=O)OCc2ccc(F)cc2)C(C)(C)O)ccc2c1B(O)OC2 [Compound 29] | 0/4 (1 × 10) | – | < 1 µL/min/mg | 0.26 nM | 0.1 nM | < 1 µL/min/mg | – | – | – | – | – | –
13 | Cc1c(C(=O)N[C@H](C(=O)OCc2ncc3ccccc3n2)C(C)C)ccc2c1B(O)OC2 [Compound 48] | 1/4 (1 × 10) | – | 4 µL/min/mg | < 0.005 nM | 0.71 nM | 23 µL/min/mg | – | – | – | – | – | –
14 | Cc1c(C(=O)N[C@H](C(=O)OCc2cccc(CN3CCN(C)CC3)c2)C(C)C)ccc2c1B(O)OC2 [Compound 52] | 0/4 (1 × 10) | – | 1.8 µL/min/mg | 1.3 nM | 0.29 nM | 6 µL/min/mg | – | – | – | – | – | –
15 | Cc1c(C(=O)NC(C(=O)OCc2ccc(F)cc2)C(C)(C)F)ccc2c1B(O)OC2 (stereo not shown) [Compound 30] | 0/4 (1 × 10) | – | 3.7 µL/min/mg | 0.09 nM | 0.25 nM | 3.1 µL/min/mg | – | – | – | – | – | –
16 | Cc1c(C(=O)N[C@H](C(=O)OCc2ccc(F)c(C(F)(F)F)c2)C(C)C)ccc2c1B(O)OC2 [Compound 17] | 0/4 (1 × 10) | – | 14 µL/min/mg | 0.21 nM | 0.04 nM | 10 µL/min/mg | – | – | – | – | – | –
17 | Cc1c(C(=O)N[C@H](C(=O)OCc2ccc(F)cn2)C(C)C)ccc2c1B(O)OC2 [Compound 35] | 0/4 (1 × 10) | – | 5.2 µL/min/mg | 0.15 nM | 0.09 nM | 7.8 µL/min/mg | – | – | – | – | – | –
18 | Cc1c(C(=O)N[C@H](C(=O)OCc2cnc3ccccc3n2)C(C)C)ccc2c1B(O)OC2 [Compound 47] | 0/4 (1 × 10) | – | 4.8 µL/min/mg | 0.2 nM | 0.081 nM | 10 µL/min/mg | – | – | – | – | – | –
19 | COC(=O)[C@@H](NC(=O)c1ccc2c(c1C)B(O)OC2)C(C)C [Compound 55] | 0/4 (1 × 10) | – | < 1 µL/min/mg | 4.2 nM | 3.3 nM | 3.1 µL/min/mg | – | – | – | – | – | –
20 | CC(C)c1c(C(=O)N[C@H](C(=O)OCc2ccc(F)cc2)C(C)C)ccc2c1B(O)OC2 [Compound 26] | 0/4 (1 × 10) | – | 32 µL/min/mg | 2.3 nM | 0.05 nM | 32 µL/min/mg | – | – | – | – | – | –
21 | CC(C)[C@H](NC(=O)c1ccc2c(c1F)B(O)OC2)C(=O)OCc1ccc(F)cc1 [Compound 21] | – | – | < 1 µL/min/mg | 28 nM | – | < 1 µL/min/mg | – | – | 1/4 (2 × 10) | – | 4/4 (2 × 10) | –
22 | CCc1c(C(=O)N[C@H](C(=O)OCc2ccc(F)cc2)C(C)C)ccc2c1B(O)OC2 [Compound 24] | – | – | 21 µL/min/mg | 0.11 nM | 0.05 nM | 23 µL/min/mg | – | – | 1/4 (2 × 10) | – | – | –
23 | Cc1c(C(=O)N[C@H](C(=O)OCc2ccc(S(C)(=O)=O)cc2)C(C)C)ccc2c1B(O)OC2 [Compound 19] | 0/4 (1 × 10) | – | 2.6 µL/min/mg | 0.61 nM | 0.44 nM | 1.3 µL/min/mg | – | – | – | – | – | –
